Where two headings read alike, the source gives them in different places.
How the values were obtained:
BV-2 cells = assay: Cell viability (MTT analysis) of beta-amyloid treated BV-2 cells; format: cell-based; settings: Mus musculus, BV-2 cells, average of three experiments; for viability at 50 µM: compound 50 μM for 24 hours after 50 μM beta-amyloid for 2 hours; for viability at 0.1 µM: compound 100 nM for 24 hours after 50 μM beta-amyloid for 2 hours; for viability at 1 µM: compound 1000 nM for 24 hours after 50 μM beta-amyloid for 2 hours
Procedure: Beta-amyloid (Aβ25-35, Sigma Chemical Co., St. Louis, Mo., USA) was diluted with aseptic desalted water and preservative solution (1 mM, GIBCO), and kept in aliquots at −70° C. To the treatment of beta-amyloid, beta-amyloid preservative solution was diluted to desired concentrations in a treatment medium (DMEM, GIBCO). The reagents were newly provided as a preservative solution (10 mM) under DMSO (dimethylsulfoxide), and diluted in treatment medium to desired concentrations.
BV-2 microglia cells (allotted from Pharmacology Division of Ajou University) were cultivated in DMEM (Dulbecco's Modified Eagle's Medium) supplemented with 5% fetal bovine serum (Invitrogen, Carlsbad, Calif., USA), sou/Ml penicillin (Invitrogen, Carlsbad, Calif., USA), and 50 μg/Ml streptomycin (Invitrogen, Carlsbad, Calif., USA) under the atmosphere condition with 5% CO2 and 95% air at 37° C. The medium was replaced once a day, the cells were plate-cultured in a density according to the scale of each experiment.
BV-2 cells were plate-cultured in 96-well plate at the density of 5×10^4, the cell viability was measured according to a conventional MTT analysis method and lactate dehydrogenase (LDH) analysis method. The MTT analysis depends on the metabolism ability of mitochondria of living cell, and reflexes intracellular redox states. The cultured cells were treated with MTT a solution (final concentration: 1 mg/Ml) for 4 hours. Deep blue formazan crystal generated in the original cells was dissolved in a lysis buffer, and then, the absorbance was detected at 595 nm with microplate reader. The LDH activity released from the culture medium was detected, which was evaluated as a cell death index. The culture medium was added to a reagent (test, Sigma Chemical Co, St. Louis, Mo., USA) containing sodium lactate, NADH and sodium pyruvate, and then, the absorbance reduction by NADH at 340 nm was measured. The result was calculated assuming that the LDH activity in homogenate solution of the non-treated control is 100%.
[…] For microscope analysis, BV-2 cells were used in 6-well plate at the density of 5×10^5 cells/well, for MTT analysis, BV-2 cells were used in 96-well plate at the density of 5×10^4 cells/well.
The obtained prevention effects of KHG25967 compound on toxicity induced by beta-amyloid in BV-2 cells were FIGS. 1A and 1b.
For MTT analysis, BV-2 cells were used on 96-well plate in the density of 5×10^4 cells/well. The quantitative analysis results (unit: %) for the cell viability obtained by MTT analysis were shown in Table 2, wherein the values are represented by the average of three experiments per each concentration.

[1] = compound 500 nM for 24 hours after 50 μM beta-amyloid for 2 hours, read-out: cell viability by MTT analysis
[2] = BV-2, read-out: cell viability by MTT analysis, compound 500 nM for 24 hours after 50 μM beta-amyloid for 2 hours
[3] = read-out: cell viability by MTT analysis

| Structure (SMILES) | melting point [°C] | viability at 0.5 µM (BV-2 cells; [1]) [%] | viability at 0.5 µM (BV-2 cells; [2]) [%] | viability at 50 µM (BV-2 cells; [3]) [%] | viability at 0.1 µM (BV-2 cells) [%] | viability at 1 µM (BV-2 cells) [%] |
| --- | --- | --- | --- | --- | --- | --- |
| CCOC(=O)CNC(=S)Nc1nc2ccccc2n1C [KHG26303, ethyl 2-(3-(1-methyl-1H-benzo[d]imidazole-2-yl)thioureido)acetate] | 185 | 48 |  |  |  |  |
| Cc1cccc2sc(NC(=O)NCC(=O)[O-])nc12.[K+] [KHG26217, potassium 2-(3-(4-methylbenzo[d]thiazole-2-yl)ureido)acetate] | 264.4 |  | 49 |  |  |  |
| CCOC(=O)CNC(=S)Nc1nc2ccc(OCC)cc2s1 [KHG26309, ethyl 2-(3-(6-ethoxybenzo[d]thiazole-2-yl)thioureido)acetate] | 183 | 65 |  |  |  |  |
| O=C(O)CNC(=S)Nc1nc2ccc(Cl)cc2s1 [KHG26341, 2-(3-(6-chlorobenzo[d]thiazole-2-yl)thioureido)acetic acid] | 193 | 67 |  |  |  |  |
| CCOC(=O)CNC(=O)Nc1nc2ccc(F)cc2s1 [KHG25956, ethyl 2-(3-(6-fluorobenzo[d]thiazole-2-yl)ureido)acetate] | 291 |  |  | 36 |  |  |
| Cc1cc2nc(NC(=O)NCC(=O)[O-])sc2cc1C.[K+] [KHG26180, potassium 2-(3-(5,6-dimethylbenzo[d]thiazole-2-yl)ureido)acetate] | 278 |  | 62 |  |  |  |
| O=C([O-])CNC(=O)Nc1nc2ccc(Cl)cc2s1.[K+] [KHG26177, potassium 2-(3-(6-chlorobenzo[d]thiazole-2-yl)ureido)acetate] | 237 |  | 62 |  |  |  |
| CCOC(=O)CCNC(=O)Nc1nc2ccccc2n1C [KHG26030, ethyl 3-(3-(1-methyl-1H-benzo[d]imidazole-2-yl)ureido)propanoate] | 105 |  |  | 75 | 60 | 76 |
| Cn1c(NC(=O)NCC(=O)[O-])nc2ccccc21.[K+] [KHG26172, potassium 2-(3-(1-methyl-1H-benzo[d]imidazole-2-yl)ureido)acetate] | 229 |  | 68 |  |  |  |
| CCOC(=O)CNC(=O)Nc1nc2ccc(OC)cc2s1 [KHG26019, ethyl 2-(3-(6-methoxybenzo[d]thiazole-2-yl)ureido)acetate] | 281.9 |  |  | 47 |  |  |
| O=C(O)CNC(=S)Nc1nc2ccccc2s1 [KHG26316, 2-(3-benzo[d]thiazole-2-ylthioureido)acetic acid] | 200 | 57 |  |  |  |  |
| CCOc1ccc2nc(NC(=S)NCC(=O)O)sc2c1 [KHG26336, 2-(3-(6-ethoxybenzo[d]thiazole-2-yl)thioureido)acetic acid] | 200 | 67 |  |  |  |  |
| CCOC(=O)CNC(=S)Nc1nc2ccccc2s1 [KHG26304, ethyl 2-(3-benzo[d]thiazole-2-ylthioureido)acetate] | 204 | 41 |  |  |  |  |
| CCOC(=O)CNC(=O)Nc1nc2ccccc2n1C [KHG26029, ethyl 2-(3-(1-methyl-1H-benzo[d]imidazole-2-yl)ureido)acetate] | 157 |  |  | 70 | 86 | 73 |
| CCOC(=O)CNC(=S)Nc1nc2ccc(Cl)cc2s1 [KHG26311, ethyl 2-(3-(6-chlorobenzo[d]thiazole-2-yl)thioureido)acetate] | 184 | 67 |  |  |  |  |
| CCOC(=O)CCCNC(=O)Nc1nc2ccccc2[nH]1 [KHG26028, ethyl 4-(3-1H-benzo[d]imidazole-2-ylureido)butanoate] | 277 |  |  | 34 |  |  |
| O=C([O-])CCCNC(=O)Nc1nc2ccccc2s1.[K+] [KHG26221, potassium 4-(3-benzo[d]thiazole-2-ylureido)butanoate] | 241 |  | 44 |  |  |  |
| CCOC(=O)CNC(=S)Nc1nc2c(Cl)cccc2s1 [KHG26312, ethyl 2-(3-(4-chlorobenzo[d]thiazole-2-yl)thioureido)acetate] | 198 | 55 |  |  |  |  |
| Cc1ccc2nc(NC(=O)NCC(=O)[O-])sc2c1.[K+] [KHG26216, potassium 2-(3-(6-methylbenzo[d]thiazole-2-yl)ureido)acetate] | 236 |  | 62 |  |  |  |
| O=C(O)CCNC(=O)Nc1nc2ccccc2s1 [KHG26026, 3-(3-benzo[d]thiazole-2-ylureido)propanic acid] | 243 |  |  | 82 | 66 | 85 |
